Results taken from ChEMBL document CHEMBL4270485, “Determination of Gymnemic Acid I as a Protein Biosynthesis Inhibitor Using Chemical Proteomics” (J Nat Prod, 2017).

Experiments:
Type in all cases: cell-free
[1] = target: Elongation factor 2 (Homo sapiens) (UniProt P13639); assay: Binding affinity to eukaryotic translation initiation factor in human Hela cells lysates assessed as protein enrichment by measuring normalized heavy/light ratio at by nano-LC-ESIMS/MS analysis
[2] = target: Elongation factor 2 (Homo sapiens) (UniProt P13639); assay: Binding affinity to elongation factor 2 in human Hela cells lysates assessed as protein enrichment by measuring normalized heavy/light ratio at by nano-LC-ESIMS/MS analysis
[3] = target: Rho-related GTP-binding protein RhoQ (Homo sapiens) (UniProt P17081); assay: Binding affinity to rho-related GTP-binding protein in human Hela cells lysates assessed as protein enrichment by measuring normalized heavy/light ratio at by nano-LC-ESIMS/MS analysis
[4] = target: T1, 80S Ribosome (Homo sapiens) (UniProt P08865+P42677+P62753+P15880+P23396+P61247+P62701+P22090+P46782+P62081+P62241+P46781+P46783+P62280+P25398+P62277+P62263+P62841+P62244+P62249+P08708+P62269+P39019+P60866+P63220+P62266+P62847+P62851+P62854+P62979+P62857+P62273+P62861+P39023+P36578+P46777+Q02878+P18124+P62424+P62917+P32969+P27635+P62906+P62913+P30050+P26373+P40429+P50914+P61313+P18621+Q07020+Q02543+P84098+P46778+P35268+P62829+P62750+P83731+P61254+P61353+P46776+P46779+P47914+P62888+P62899+P62910+P49207+P42766+P18077+Q9Y3U8+P83881+P61927+P61513+P63173+P62891+P62945+P05388+P05386); assay: Binding affinity to 60S ribosomal protein L38 in human Hela cells lysates assessed as protein enrichment by measuring normalized heavy/light ratio at by nano-LC-ESIMS/MS analysis
[5] = target: Small ribosomal subunit protein eS6 (Homo sapiens) (UniProt P62753); assay: Binding affinity to 40S ribosomal protein S6 in human Hela cells lysates assessed as protein enrichment by measuring normalized heavy/light ratio at by nano-LC-ESIMS/MS analysis
[6] = target: 60 kDa heat shock protein, mitochondrial (Homo sapiens) (UniProt P10809); assay: Binding affinity to 60 kDa heat shock protein in human Hela cells lysates assessed as protein enrichment by measuring normalized heavy/light ratio at by nano-LC-ESIMS/MS analysis
[7] = target: Solute carrier family 25 member 3 (Homo sapiens) (UniProt Q00325); assay: Binding affinity to phosphate carrier protein in human Hela cells lysates assessed as protein enrichment by measuring normalized heavy/light ratio at by nano-LC-ESIMS/MS analysis
Homo sapiens = organism: Homo sapiens; assay: Binding affinity to histone H2A in human Hela cells lysates assessed as protein enrichment by measuring normalized heavy/light ratio at by nano-LC-ESIMS/MS analysis
[8] = target: Putative annexin A2-like protein (Homo sapiens) (UniProt A6NMY6); assay: Binding affinity to putative annexin A2-like protein in human Hela cells lysates assessed as protein enrichment by measuring normalized heavy/light ratio at by nano-LC-ESIMS/MS analysis
[9] = target: T1, 80S Ribosome (Homo sapiens); assay: Binding affinity to 60S ribosomal protein L10 in human Hela cells lysates assessed as protein enrichment by measuring normalized heavy/light ratio at by nano-LC-ESIMS/MS analysis
[10] = target: Eukaryotic initiation factor 4A-II (Homo sapiens) (UniProt Q14240); assay: Binding affinity to eukaryotic initiation factor 4A-II in human Hela cells lysates assessed as protein enrichment by measuring normalized heavy/light ratio at by nano-LC-ESIMS/MS analysis
[11] = target: Phosphoglycerate kinase 1 (Homo sapiens) (UniProt P00558); assay: Binding affinity to phosphoglycerate kinase 1 in human Hela cells lysates assessed as protein enrichment by measuring normalized heavy/light ratio at by nano-LC-ESIMS/MS analysis
[12] = target: Pyruvate kinase PKM (Homo sapiens) (UniProt P14618); assay: Binding affinity to pyruvate kinase isozymes M1/M2 in human Hela cells lysates assessed as protein enrichment by measuring normalized heavy/light ratio at by nano-LC-ESIMS/MS analysis
[13] = target: Small ribosomal subunit protein eS27 (Homo sapiens) (UniProt P42677); assay: Binding affinity to 40S ribosomal protein S27 in human Hela cells lysates assessed as protein enrichment by measuring normalized heavy/light ratio at by nano-LC-ESIMS/MS analysis
[14] = target: Heat shock protein HSP 90-beta (Homo sapiens) (UniProt P08238); assay: Binding affinity to heat shock protein 90-beta in human Hela cells lysates assessed as protein enrichment by measuring normalized heavy/light ratio at by nano-LC-ESIMS/MS analysis
[15] = target: L-lactate dehydrogenase A chain (Homo sapiens) (UniProt P00338); assay: Binding affinity to L-lactate dehydrogenase A chain in human Hela cells lysates assessed as protein enrichment by measuring normalized heavy/light ratio at by nano-LC-ESIMS/MS analysis
[16] = target: Alpha-enolase (Homo sapiens) (UniProt P06733); assay: Binding affinity to alpha-enolase in human Hela cells lysates assessed as protein enrichment by measuring normalized heavy/light ratio at by nano-LC-ESIMS/MS analysis
[17] = target: T1, 80S Ribosome (Homo sapiens); assay: Binding affinity to 60S ribosomal protein L35 in human Hela cells lysates assessed as protein enrichment by measuring normalized heavy/light ratio at by nano-LC-ESIMS/MS analysis
[18] = target: D-3-phosphoglycerate dehydrogenase (Homo sapiens) (UniProt O43175); assay: Binding affinity to D3-phosphoglycerate dehydrogenase in human Hela cells lysates assessed as protein enrichment by measuring normalized heavy/light ratio at by nano-LC-ESIMS/MS analysis
[19] = target: Actin, cytoplasmic 1 (Homo sapiens) (UniProt P60709); assay: Binding affinity to actin, Cytoplasmic1 in human Hela cells lysates assessed as protein enrichment by measuring normalized heavy/light ratio at by nano-LC-ESIMS/MS analysis
[20] = target: Transketolase (Homo sapiens) (UniProt P29401); assay: Binding affinity to transketolase in human Hela cells lysates assessed as protein enrichment by measuring normalized heavy/light ratio at by nano-LC-ESIMS/MS analysis
[21] = target: T1, 80S Ribosome (Homo sapiens); assay: Binding affinity to 60S ribosomal protein L9 in human Hela cells lysates assessed as protein enrichment by measuring normalized heavy/light ratio at by nano-LC-ESIMS/MS analysis
[22] = target: Tubulin beta-5 chain (Homo sapiens) (UniProt P07437); assay: Binding affinity to tubulin beta chain in human Hela cells lysates assessed as protein enrichment by measuring normalized heavy/light ratio at by nano-LC-ESIMS/MS analysis
[23] = target: T1, 80S Ribosome (Homo sapiens); assay: Binding affinity to 40S ribosomal protein S10 in human Hela cells lysates assessed as protein enrichment by measuring normalized heavy/light ratio at by nano-LC-ESIMS/MS analysis
[24] = target: Peptidyl-prolyl cis-trans isomerase A (Homo sapiens) (UniProt P62937); assay: Binding affinity to peptidyl-prolylcis-trans isomerase in human Hela cells lysates assessed as protein enrichment by measuring normalized heavy/light ratio at by nano-LC-ESIMS/MS analysis
Peptidyl-prolyl cis-trans isomerase A (Homo sapiens), sequence (P62937 whole entry, looked up): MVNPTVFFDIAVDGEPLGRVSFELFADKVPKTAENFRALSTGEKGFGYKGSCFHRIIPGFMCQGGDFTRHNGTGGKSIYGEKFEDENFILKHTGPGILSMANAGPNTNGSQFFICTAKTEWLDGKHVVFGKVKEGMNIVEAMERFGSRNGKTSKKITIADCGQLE

Tubulin beta-5 chain (Homo sapiens), sequence (P07437 whole entry): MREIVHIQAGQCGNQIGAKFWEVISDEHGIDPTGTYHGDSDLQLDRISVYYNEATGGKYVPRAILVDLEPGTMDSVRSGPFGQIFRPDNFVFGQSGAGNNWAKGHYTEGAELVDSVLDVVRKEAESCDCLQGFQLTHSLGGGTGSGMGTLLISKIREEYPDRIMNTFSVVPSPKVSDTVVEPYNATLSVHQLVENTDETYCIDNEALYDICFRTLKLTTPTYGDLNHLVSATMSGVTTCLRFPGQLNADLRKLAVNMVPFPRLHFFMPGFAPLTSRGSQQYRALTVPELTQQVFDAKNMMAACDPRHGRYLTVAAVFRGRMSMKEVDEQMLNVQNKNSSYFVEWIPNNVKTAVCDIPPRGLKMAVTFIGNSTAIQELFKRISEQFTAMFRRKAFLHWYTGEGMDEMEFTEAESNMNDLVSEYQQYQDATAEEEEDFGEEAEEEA
Heat shock protein HSP 90-beta (Homo sapiens), sequence (P08238 whole entry): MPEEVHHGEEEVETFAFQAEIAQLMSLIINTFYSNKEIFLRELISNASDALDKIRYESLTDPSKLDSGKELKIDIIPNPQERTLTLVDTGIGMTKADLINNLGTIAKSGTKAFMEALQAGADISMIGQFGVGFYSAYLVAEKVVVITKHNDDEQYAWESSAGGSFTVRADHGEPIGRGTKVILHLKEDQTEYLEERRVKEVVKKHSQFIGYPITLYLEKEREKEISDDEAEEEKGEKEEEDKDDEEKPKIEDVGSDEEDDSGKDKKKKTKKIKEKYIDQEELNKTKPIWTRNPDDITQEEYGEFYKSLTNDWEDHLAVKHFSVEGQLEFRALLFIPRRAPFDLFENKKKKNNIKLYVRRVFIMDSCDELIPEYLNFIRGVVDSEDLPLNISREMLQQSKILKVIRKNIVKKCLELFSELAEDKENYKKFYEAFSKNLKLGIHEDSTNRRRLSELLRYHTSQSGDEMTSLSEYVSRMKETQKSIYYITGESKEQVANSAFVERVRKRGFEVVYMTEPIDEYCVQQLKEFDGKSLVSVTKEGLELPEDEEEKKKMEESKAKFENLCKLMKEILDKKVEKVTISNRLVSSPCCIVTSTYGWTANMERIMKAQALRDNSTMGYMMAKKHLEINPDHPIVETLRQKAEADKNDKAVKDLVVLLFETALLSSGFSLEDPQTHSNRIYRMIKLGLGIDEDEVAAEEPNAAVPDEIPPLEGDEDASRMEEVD
Eukaryotic initiation factor 4A-II (Homo sapiens), sequence (Q14240 whole entry): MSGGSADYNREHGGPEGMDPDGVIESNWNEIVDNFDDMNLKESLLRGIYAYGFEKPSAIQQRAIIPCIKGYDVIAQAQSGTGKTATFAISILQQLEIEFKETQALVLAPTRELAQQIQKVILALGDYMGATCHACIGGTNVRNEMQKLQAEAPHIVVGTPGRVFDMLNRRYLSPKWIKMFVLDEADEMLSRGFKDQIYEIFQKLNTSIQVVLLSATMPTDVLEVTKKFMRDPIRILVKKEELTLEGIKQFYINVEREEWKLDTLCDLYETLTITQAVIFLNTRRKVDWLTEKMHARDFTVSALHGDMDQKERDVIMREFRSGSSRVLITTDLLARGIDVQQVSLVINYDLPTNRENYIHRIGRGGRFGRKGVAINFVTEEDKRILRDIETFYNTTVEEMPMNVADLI
Alpha-enolase (Homo sapiens), sequence (P06733 whole entry): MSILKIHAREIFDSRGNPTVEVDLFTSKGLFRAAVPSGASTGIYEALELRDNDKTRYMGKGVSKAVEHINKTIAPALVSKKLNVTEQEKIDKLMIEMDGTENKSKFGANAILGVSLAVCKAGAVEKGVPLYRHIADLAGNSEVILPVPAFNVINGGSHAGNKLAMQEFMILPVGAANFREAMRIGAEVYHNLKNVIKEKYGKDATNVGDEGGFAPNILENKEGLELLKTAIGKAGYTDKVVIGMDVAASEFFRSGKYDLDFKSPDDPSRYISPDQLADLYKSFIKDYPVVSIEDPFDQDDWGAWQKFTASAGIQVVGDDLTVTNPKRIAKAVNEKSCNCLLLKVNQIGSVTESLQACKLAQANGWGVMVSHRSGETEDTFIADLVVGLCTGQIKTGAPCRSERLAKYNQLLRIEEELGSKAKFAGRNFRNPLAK
Phosphoglycerate kinase 1 (Homo sapiens), sequence (P00558 whole entry): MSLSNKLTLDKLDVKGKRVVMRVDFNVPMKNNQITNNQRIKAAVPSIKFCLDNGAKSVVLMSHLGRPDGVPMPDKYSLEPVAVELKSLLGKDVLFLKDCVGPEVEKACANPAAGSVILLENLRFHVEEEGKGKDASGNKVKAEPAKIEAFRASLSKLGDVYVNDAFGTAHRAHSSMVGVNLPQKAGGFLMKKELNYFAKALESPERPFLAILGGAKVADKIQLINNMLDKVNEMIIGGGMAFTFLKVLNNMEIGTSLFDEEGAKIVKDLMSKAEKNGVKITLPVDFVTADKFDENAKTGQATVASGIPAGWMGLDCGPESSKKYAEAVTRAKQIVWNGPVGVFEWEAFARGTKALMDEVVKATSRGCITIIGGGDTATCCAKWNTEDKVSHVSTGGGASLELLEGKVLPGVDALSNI
Putative annexin A2-like protein (Homo sapiens), sequence (A6NMY6 whole entry): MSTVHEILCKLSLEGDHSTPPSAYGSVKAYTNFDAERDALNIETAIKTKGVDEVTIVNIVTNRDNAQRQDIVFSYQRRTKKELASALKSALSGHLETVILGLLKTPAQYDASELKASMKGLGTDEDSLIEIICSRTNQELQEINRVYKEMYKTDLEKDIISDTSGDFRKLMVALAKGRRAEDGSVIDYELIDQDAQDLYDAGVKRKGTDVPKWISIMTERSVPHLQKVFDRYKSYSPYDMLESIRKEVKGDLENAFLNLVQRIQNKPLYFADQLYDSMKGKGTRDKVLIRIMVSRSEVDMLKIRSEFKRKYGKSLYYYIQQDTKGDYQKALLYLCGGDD
Rho-related GTP-binding protein RhoQ (Homo sapiens), sequence (P17081 whole entry): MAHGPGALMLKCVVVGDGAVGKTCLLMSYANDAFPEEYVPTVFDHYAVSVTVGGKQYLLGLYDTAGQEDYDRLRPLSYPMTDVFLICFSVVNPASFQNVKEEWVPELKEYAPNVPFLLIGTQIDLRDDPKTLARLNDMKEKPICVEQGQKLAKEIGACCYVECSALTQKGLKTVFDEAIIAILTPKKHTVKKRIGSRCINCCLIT
Transketolase (Homo sapiens), sequence (P29401 whole entry): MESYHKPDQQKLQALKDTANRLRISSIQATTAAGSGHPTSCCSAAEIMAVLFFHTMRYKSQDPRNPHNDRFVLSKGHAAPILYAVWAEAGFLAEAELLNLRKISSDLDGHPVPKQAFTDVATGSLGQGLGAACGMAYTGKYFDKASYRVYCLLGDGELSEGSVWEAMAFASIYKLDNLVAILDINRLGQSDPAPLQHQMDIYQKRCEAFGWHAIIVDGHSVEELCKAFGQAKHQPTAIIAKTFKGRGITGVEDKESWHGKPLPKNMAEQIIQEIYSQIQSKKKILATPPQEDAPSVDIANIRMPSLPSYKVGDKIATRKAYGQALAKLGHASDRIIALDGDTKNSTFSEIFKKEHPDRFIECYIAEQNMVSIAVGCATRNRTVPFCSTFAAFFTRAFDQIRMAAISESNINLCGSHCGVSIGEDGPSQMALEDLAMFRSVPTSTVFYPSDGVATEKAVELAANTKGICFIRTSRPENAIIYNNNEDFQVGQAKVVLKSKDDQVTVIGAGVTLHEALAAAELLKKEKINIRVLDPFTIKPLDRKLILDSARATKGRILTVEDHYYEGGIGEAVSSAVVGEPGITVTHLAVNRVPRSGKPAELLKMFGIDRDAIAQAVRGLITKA
60 kDa heat shock protein, mitochondrial (Homo sapiens), sequence (P10809 whole entry): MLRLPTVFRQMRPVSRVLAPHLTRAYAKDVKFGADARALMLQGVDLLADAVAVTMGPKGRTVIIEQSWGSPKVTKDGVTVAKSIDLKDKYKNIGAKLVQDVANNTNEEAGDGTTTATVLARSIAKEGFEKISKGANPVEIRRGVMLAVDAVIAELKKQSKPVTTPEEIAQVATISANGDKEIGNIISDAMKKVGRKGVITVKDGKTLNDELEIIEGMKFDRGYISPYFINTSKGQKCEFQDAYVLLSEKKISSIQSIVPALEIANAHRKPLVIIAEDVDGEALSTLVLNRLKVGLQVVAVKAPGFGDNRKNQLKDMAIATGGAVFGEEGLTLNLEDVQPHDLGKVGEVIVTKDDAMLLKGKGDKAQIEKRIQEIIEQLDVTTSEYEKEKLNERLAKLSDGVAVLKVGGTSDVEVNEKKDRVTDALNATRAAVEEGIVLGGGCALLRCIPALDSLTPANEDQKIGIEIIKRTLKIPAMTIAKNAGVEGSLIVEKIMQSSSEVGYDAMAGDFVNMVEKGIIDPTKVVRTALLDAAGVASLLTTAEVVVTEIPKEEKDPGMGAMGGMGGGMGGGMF
D-3-phosphoglycerate dehydrogenase (Homo sapiens), sequence (O43175 whole entry): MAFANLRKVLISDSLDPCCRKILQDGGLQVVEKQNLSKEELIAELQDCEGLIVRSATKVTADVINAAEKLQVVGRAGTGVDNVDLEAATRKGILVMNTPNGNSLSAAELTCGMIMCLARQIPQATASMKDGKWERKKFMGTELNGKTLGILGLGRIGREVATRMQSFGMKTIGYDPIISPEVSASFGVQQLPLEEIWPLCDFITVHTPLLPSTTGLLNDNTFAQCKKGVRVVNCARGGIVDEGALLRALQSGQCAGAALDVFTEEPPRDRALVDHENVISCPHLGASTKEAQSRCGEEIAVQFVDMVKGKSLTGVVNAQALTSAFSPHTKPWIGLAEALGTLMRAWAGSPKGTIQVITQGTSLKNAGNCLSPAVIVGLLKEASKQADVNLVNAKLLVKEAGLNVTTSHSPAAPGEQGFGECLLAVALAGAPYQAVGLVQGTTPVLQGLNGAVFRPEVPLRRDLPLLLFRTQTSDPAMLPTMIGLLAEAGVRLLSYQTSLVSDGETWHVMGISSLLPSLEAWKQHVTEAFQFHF

Ratio [1]: 0.795
Ratio [2]: 0.688
Ratio [3]: 0.706
Ratio [4]: 0.33
Ratio [5]: 0.317
Ratio [6]: 0.57
Ratio [7]: 0.57
Ratio [8]: 0.988
Ratio [9]: 0.105
Ratio [10]: 0.404
Ratio [11]: 0.665
Ratio [12]: 0.899
Ratio [13]: 0.418
Ratio [14]: 0.737
Ratio [15]: 0.48
Ratio [16]: 0.811
Ratio [17]: 0.062
Ratio [18]: 0.509
Ratio [19]: 0.436
Ratio [20]: 0.623
Ratio [21]: 0.453
Ratio [22]: 0.52
Ratio [23]: 0.39
Ratio [24]: 1.21
Compound: C/C=C(\C)C(=O)O[C@H]1[C@H](O)[C@]2(COC(C)=O)[C@@H](O)C[C@]3(C)C(=CC[C@@H]4[C@@]5(C)CC[C@H](O[C@@H]6O[C@H](C(=O)O)[C@@H](O)[C@H](O)[C@H]6O)[C@@](C)(CO)[C@@H]5CC[C@]43C)[C@@H]2CC1(C)C
Ratio (Homo sapiens): 0.509
